Among the data in patent publication US8586550B2, “Thiazole derivatives as SGLT2 inhibitors and pharmaceutical composition comprising same” (Green Cross Corporation, priority 2010, dated 2013) are IC50 values, retold here.

In the experiment the target is T1, Human SGLT2 (hSGLT2) (Homo sapiens, UniProt P31639).
T1 construct: expressed in transfected cells
T1 sequence (P31639 1-672): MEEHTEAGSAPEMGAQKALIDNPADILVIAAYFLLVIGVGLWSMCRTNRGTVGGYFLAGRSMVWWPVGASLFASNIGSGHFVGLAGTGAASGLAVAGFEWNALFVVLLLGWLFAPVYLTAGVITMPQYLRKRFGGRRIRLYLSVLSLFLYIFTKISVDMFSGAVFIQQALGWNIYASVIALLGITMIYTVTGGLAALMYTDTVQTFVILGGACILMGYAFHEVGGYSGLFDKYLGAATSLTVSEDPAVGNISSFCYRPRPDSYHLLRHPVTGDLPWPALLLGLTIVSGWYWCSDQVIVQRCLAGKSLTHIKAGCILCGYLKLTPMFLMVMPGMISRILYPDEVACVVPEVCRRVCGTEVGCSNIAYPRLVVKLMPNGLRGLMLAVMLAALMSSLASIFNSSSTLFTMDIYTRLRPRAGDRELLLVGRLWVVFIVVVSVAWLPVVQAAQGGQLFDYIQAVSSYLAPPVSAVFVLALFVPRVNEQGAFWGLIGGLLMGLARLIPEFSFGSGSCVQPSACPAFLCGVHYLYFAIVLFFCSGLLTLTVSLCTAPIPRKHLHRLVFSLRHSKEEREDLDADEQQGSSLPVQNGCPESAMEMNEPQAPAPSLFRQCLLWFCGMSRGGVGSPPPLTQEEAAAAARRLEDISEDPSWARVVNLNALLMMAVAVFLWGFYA
In words: Sodium-dependent glucose transport (14C-AMG uptake) assay in CHO cells stably expressing hSGLT2. It counts as cell-based. To be noted: CHO cells expressing hSGLT2, 14C-AMG uptake, 37° C. for 2 h; single determinations; read-out: hSGLT2 Inhibitory Activity IC50. A digest of the protocol:
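CHO cells stably expressing human SGLT2, preincubated 10 min at 37 °C in sodium-free choline buffer, then 2 h at 37 °C in Na+ buffer with 1 mM AMG plus 8 μM 14C-AMG and inhibitor. Washed cells counted by scintillation; IC50 by nonlinear regression.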
The term IC50 denotes the midpoint of a concentration-inhibition curve. Regarding `OC[C@H]1O[C@@H](c2ccc(Cl)c(Cc3ncc(-c4ccccn4)s3)c2)[C@H](O)[C@@H](O)[C@@H]1O` [Example 10, (2S,3R,4R,5S,6R)-2-(4-Chloro-3-((5-(pyridin-2-yl)thiazol-2-yl)methyl)phenyl)-6-(hydroxymethyl)-tetrahydro-2H-pyran-3,4,5-triol], the IC50 stood at 6.86 nM.

Consider `CCOc1cnc(Cc2cc([C@@H]3O[C@H](CO)[C@@H](O)[C@H](O)[C@H]3O)c3ccccc3c2OC)s1` [Example 103, (2S,3R,4R,5S,6R)-2-(3-((5-Ethoxythiazol-2-yl)methyl)-4-methoxynaphthalen-1-yl)-6-(hydroxymethyl)-tetrahydro-2H-pyran-3,4,5-triol], for which the concentration for half-maximal inhibition (IC50) worked out at 51.8 nM.

Consider `CCOc1cc(Cl)c(Cc2ncc(-c3ccc(F)cc3)s2)cc1[C@@H]1O[C@H](CO)[C@@H](O)[C@H](O)[C@H]1O` [Example 82, (2S,3R,4R,5S,6R)-2-(4-Chloro-2-ethoxy-5-((5-(4-fluorophenyl)thiazol-2-yl)methyl)phenyl)-6-(hydroxymethyl)tetrahydro-2H-pyran-3,4,5-triol], for which the 50% inhibitory concentration (IC50) was found to be 7.55 nM.

With `O[C@@H]1[C@@H](O)[C@H](c2ccc(Cl)c(Cc3ncc(-c4ccco4)s3)c2)O[C@H](CF)[C@H]1O` [Example 145, (2S,3R,4R,5S,6S)-2-(4-Chloro-3-((5-(furan-2-yl)thiazol-2-yl)methyl)phenyl)-6-(fluoromethyl)-tetrahydro-2H-pyran-3,4,5-triol], the IC50 came out at 10.6 nM.

As to `OC[C@H]1O[C@@H](c2ccc(F)c(Cc3ncc(-c4ccoc4)s3)c2)[C@H](O)[C@@H](O)[C@@H]1O` [Example 41, (2S,3R,4R,5S,6R)-2-(4-Fluoro-3-((5-(furan-3-yl)thiazol-2-yl)methyl)phenyl)-6-(hydroxymethyl)tetrahydro-2H-pyran-3,4,5-triol], the 50% inhibitory concentration (IC50) turned out to be 30.5 nM.

On to `COc1cc(Cl)c(Cc2ncc(-c3ccco3)s2)cc1[C@@H]1O[C@H](CO)[C@@H](O)[C@H](O)[C@H]1O` [Example 69, (2S,3R,4R,5S,6R)-2-(4-Chloro-5-((5-(furan-2-yl)thiazol-2-yl)methyl)-2-methoxyphenyl)-6-(hydroxymethyl)tetrahydro-2H-pyran-3,4,5-triol], for which the IC50 was 2.24 nM.

For the compound `N#Cc1ccc([C@@H]2O[C@H](CO)[C@@H](O)[C@H](O)[C@H]2O)cc1Cc1ncc(-c2ccco2)s1` [Example 108, 2-((5-(Furan-2-yl)thiazol-2-yl)methyl)-4-((2S,3R,4R,5S,6R)-3,4,5-trihydroxy-6-(hydroxymethyl)-tetrahydro-2H-pyran-2-yl)benzonitrile], the half-maximal inhibitory concentration (IC50) was 36.7 nM.

For `OCCOc1cc(Cl)c(Cc2ncc(-c3ccco3)s2)cc1[C@@H]1O[C@H](CO)[C@@H](O)[C@H](O)[C@H]1O` [Example 121, (2S,3R,4R,5S,6R)-2-(4-Chloro-5-((5-(furan-2-yl)thiazol-2-yl)methyl)-2-(2-hydroxyethoxy)phenyl)-6-(hydroxymethyl)tetrahydro-2H-pyran-3,4,5-triol], the IC50 is 1.51 nM.

With `OC[C@H]1O[C@@H](c2ccc(Cl)c(Cc3cnc(-c4ccoc4)s3)c2)[C@H](O)[C@@H](O)[C@@H]1O` [Example 186, (2S,3R,4R,5S,6R)-2-(4-Chloro-3-((2-(furan-3-yl)thiazol-5-yl)methyl)phenyl)-6-(hydroxymethyl)tetrahydro-2H-pyran-3,4,5-triol], the half-maximal inhibitory concentration (IC50) came to 4.47 nM.

Turning to `C=CCOc1cc(Cl)c(Cc2ncc(-c3ccc(F)cc3)s2)cc1[C@@H]1O[C@H](CO)[C@@H](O)[C@H](O)[C@H]1O` [Example 88, (2S,3R,4R,5S,6R)-2-(2-(Allyloxy)-4-chloro-5-((5-(4-fluorophenyl)thiazol-2-yl)methyl)phenyl)-6-(hydroxymethyl)tetrahydro-2H-pyran-3,4,5-triol], the IC50 was found to be 4.22 nM.

`Cc1ccc([C@@H]2O[C@H](CO)[C@@H](O)[C@H](O)[C@H]2O)cc1Cc1ncc(Cc2ccccc2)s1` [Example 39, (2S,3R,4R,5S,6R)-2-(3-((5-Benzylthiazol-2-yl)methyl)-4-methylphenyl)-6-(hydroxymethyl)tetrahydro-2H-pyran-3,4,5-triol]: the IC50 was found to be 176 nM.

On to `OC[C@H]1O[C@@H](c2cc(Cc3ncc(-c4ccco4)s3)c(Cl)cc2O)[C@H](O)[C@@H](O)[C@@H]1O` [Example 112, (2S,3R,4R,5S,6R)-2-(4-Chloro-5-((5-(furan-2-yl)thiazol-2-yl)methyl)-2-hydroxyphenyl)-6-(hydroxymethyl)-tetrahydro-2H-pyran-3,4,5-triol], for which the IC50 worked out at 0.797 nM.

In the case of `CCc1cnc(Cc2cn([C@@H]3O[C@H](CO)[C@@H](O)[C@H](O)[C@H]3O)c3ccccc23)s1` [Example 133, (2R,3R,4S,5S,6R)-2-(3-((5-Ethylthiazol-2-yl)methyl)-1H-indol-1-yl)-6-(hydroxymethyl)tetrahydro-2H-pyran-3,4,5-triol], the IC50 was determined as 180 nM.

As to `Cc1ccc([C@@H]2O[C@H](CO)[C@@H](O)[C@H](O)[C@H]2O)cc1Cc1ncc(-c2ccccc2)s1` [Example 35, (2R,3S,4R,5R,6S)-2-(Hydroxymethyl)-6-(4-methyl-3-((5-phenylthiazol-2-yl)methyl)phenyl)tetrahydro-2H-pyran-3,4,5-triol], the concentration for half-maximal inhibition (IC50) amounted to 4.17 nM.

For `CCc1cnc(Cc2cc([C@@H]3O[C@H](CO)[C@@H](O)[C@H](O)[C@H]3O)ccc2Cl)s1` [Example 12, (2S,3R,4R,5S,6R)-2-(4-chloro-3-((5-ethylthiazol-2-yl)methyl)phenyl)-6-(hydroxymethyl)-tetrahydro-2H-pyran-3,4,5-triol], the 50% inhibitory concentration (IC50) worked out at 16.7 nM.

Take “(2S,3R,4R,5S,6R)-2-(4-Chloro-2-ethoxy-5-((5-(furan-3-yl)thiazol-2-yl)methyl)phenyl)-6-(hydroxymethyl)tetrahydro-2H-pyran-3,4,5-triol [Example 31]”: the half-inhibitory concentration (IC50) worked out at 3.66 nM.

Regarding `Cc1ccc([C@@H]2O[C@H](CO)[C@@H](O)[C@H](O)[C@H]2O)cc1Cc1ncc(-c2cccs2)s1` [Example 32, (2R,3S,4R,5R,6S)-2-(Hydroxymethyl)-6-(4-methyl-3-((5-(thiophen-2-yl)thiazol-2-yl)methyl)phenyl)tetrahydro-2H-pyran-3,4,5-triol], the IC50 is 3.8 nM.

Consider `CC(C)(C)OC(=O)OC[C@H]1O[C@@H](c2ccc(Cl)c(Cc3ncc(-c4ccco4)s3)c2)[C@H](O)[C@@H](O)[C@@H]1O` [Example 162, tert-Butyl ((2R,3S,4R,5R,6S)-6-(4-chloro-3-((5-(furan-2-yl)thiazol-2-yl)methyl)phenyl)-3,4,5-trihydroxytetrahydro-2H-pyran-2-yl)methyl carbonate], for which the IC50 amounted to 79.9 nM.

In the case of `OC[C@H]1O[C@@H](c2ccc(F)c(Cc3ncc(-c4cccs4)s3)c2)[C@H](O)[C@@H](O)[C@@H]1O` [Example 42, (2S,3R,4R,5S,6R)-2-(4-Fluoro-3-((5-(thiophen-2-yl)thiazol-2-yl)methyl)phenyl)-6-(hydroxymethyl)tetrahydro-2H-pyran-3,4,5-triol], the IC50 was determined as 25.4 nM.

With `COc1c(Cc2ncc(-c3ccco3)s2)cc([C@@H]2O[C@H](CO)[C@@H](O)[C@H](O)[C@H]2O)c2ccccc12` [Example 95, (2S,3R,4R,5S,6R)-2-(3-((5-(Furan-2-yl)thiazol-2-yl)methyl)-4-methoxynaphthalen-1-yl)-6-(hydroxymethyl)-tetrahydro-2H-pyran-3,4,5-triol], the concentration for half-maximal inhibition (IC50) is 2.94 nM.

With `COc1c(Cc2ncc(C)s2)cc([C@@H]2O[C@H](CO)[C@@H](O)[C@H](O)[C@H]2O)c2ccccc12` [Example 98, (2R,3S,4R,5R,6S)-2-(Hydroxymethyl)-6-(4-methoxy-3-((5-methylthiazol-2-yl)methyl)naphthalen-1-yl)-tetrahydro-2H-pyran-3,4,5-triol], the IC50 came out at 29.9 nM.

Take `COc1c(Cc2ncc(C3CCCCC3)s2)cc([C@@H]2O[C@H](CO)[C@@H](O)[C@H](O)[C@H]2O)c2ccccc12` [Example 102, (2S,3R,4R,5S,6R)-2-(3-((5-Cyclohexylthiazol-2-yl)methyl)-4-methoxynaphthalen-1-yl)-6-(hydroxymethyl)-tetrahydro-2H-pyran-3,4,5-triol]: the IC50 was determined as 50.3 nM.

On to `CCCc1cnc(Cc2cc([C@@H]3O[C@H](CO)[C@@H](O)[C@H](O)[C@H]3O)c3ccccc3c2O)s1` [Example 126, (2S,3R,4R,5S,6R)-2-(4-Hydroxy-3-((5-propylthiazol-2-yl)methyl)naphthalen-1-yl)-6-(hydroxymethyl)-tetrahydro-2H-pyran-3,4,5-triol], for which the IC50 is 67.3 nM.

As to `CCCCSc1cnc(Cc2cc([C@@H]3O[C@H](CO)[C@@H](O)[C@H](O)[C@H]3O)ccc2Cl)s1` [Example 26, (2S,3R,4R,5S,6R)-2-(3-((5-(Butylthio)thiazol-2-yl)methyl)-4-chlorophenyl)-6-(hydroxymethyl)-tetrahydro-2H-pyran-3,4,5-triol], the half-maximal inhibitory concentration (IC50) came to 58.7 nM.
